According to patent US9273040B2 (Merck Sharp & Dohme Corp., priority 2011, dated 2016):
Where two headings read alike, the source gives them in different places.

Experiments:
[1] = molecular target: T1, human Nav1.5 channels stably expressed in HEK 293 cells (Homo sapiens, UniProt Q14524); assay: PatchXpress 7000 automated patch-clamp, sodium current; type: cell-based; settings: selectivity over Nav1.5
T1 construct: expressed in transfected cells
In short: (§1)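 IC50 values came from Hill-equation fits of rundown-corrected inhibition. PatchXpress recordings at 22° C held cells 20 mV negative to V0.5 inact and applied 10 Hz trains of 30 ms steps to −20 mV (Nav1.7) or an 8000 ms prepulse 7 mV positive to V0.5 inact. […]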

[2] = molecular target: T2, human Nav1.7 channels stably expressed in HEK 293 cells (Homo sapiens, UniProt Q15858); assay: as above; type: cell-based; settings: 22° C.
T2 construct: expressed in transfected cells
In short: as §1

[3] = read-out: potency for the Nav 1.7 sodium ion channel (as measured by PatchXpress)

T2 sequence (Q15858 whole entry): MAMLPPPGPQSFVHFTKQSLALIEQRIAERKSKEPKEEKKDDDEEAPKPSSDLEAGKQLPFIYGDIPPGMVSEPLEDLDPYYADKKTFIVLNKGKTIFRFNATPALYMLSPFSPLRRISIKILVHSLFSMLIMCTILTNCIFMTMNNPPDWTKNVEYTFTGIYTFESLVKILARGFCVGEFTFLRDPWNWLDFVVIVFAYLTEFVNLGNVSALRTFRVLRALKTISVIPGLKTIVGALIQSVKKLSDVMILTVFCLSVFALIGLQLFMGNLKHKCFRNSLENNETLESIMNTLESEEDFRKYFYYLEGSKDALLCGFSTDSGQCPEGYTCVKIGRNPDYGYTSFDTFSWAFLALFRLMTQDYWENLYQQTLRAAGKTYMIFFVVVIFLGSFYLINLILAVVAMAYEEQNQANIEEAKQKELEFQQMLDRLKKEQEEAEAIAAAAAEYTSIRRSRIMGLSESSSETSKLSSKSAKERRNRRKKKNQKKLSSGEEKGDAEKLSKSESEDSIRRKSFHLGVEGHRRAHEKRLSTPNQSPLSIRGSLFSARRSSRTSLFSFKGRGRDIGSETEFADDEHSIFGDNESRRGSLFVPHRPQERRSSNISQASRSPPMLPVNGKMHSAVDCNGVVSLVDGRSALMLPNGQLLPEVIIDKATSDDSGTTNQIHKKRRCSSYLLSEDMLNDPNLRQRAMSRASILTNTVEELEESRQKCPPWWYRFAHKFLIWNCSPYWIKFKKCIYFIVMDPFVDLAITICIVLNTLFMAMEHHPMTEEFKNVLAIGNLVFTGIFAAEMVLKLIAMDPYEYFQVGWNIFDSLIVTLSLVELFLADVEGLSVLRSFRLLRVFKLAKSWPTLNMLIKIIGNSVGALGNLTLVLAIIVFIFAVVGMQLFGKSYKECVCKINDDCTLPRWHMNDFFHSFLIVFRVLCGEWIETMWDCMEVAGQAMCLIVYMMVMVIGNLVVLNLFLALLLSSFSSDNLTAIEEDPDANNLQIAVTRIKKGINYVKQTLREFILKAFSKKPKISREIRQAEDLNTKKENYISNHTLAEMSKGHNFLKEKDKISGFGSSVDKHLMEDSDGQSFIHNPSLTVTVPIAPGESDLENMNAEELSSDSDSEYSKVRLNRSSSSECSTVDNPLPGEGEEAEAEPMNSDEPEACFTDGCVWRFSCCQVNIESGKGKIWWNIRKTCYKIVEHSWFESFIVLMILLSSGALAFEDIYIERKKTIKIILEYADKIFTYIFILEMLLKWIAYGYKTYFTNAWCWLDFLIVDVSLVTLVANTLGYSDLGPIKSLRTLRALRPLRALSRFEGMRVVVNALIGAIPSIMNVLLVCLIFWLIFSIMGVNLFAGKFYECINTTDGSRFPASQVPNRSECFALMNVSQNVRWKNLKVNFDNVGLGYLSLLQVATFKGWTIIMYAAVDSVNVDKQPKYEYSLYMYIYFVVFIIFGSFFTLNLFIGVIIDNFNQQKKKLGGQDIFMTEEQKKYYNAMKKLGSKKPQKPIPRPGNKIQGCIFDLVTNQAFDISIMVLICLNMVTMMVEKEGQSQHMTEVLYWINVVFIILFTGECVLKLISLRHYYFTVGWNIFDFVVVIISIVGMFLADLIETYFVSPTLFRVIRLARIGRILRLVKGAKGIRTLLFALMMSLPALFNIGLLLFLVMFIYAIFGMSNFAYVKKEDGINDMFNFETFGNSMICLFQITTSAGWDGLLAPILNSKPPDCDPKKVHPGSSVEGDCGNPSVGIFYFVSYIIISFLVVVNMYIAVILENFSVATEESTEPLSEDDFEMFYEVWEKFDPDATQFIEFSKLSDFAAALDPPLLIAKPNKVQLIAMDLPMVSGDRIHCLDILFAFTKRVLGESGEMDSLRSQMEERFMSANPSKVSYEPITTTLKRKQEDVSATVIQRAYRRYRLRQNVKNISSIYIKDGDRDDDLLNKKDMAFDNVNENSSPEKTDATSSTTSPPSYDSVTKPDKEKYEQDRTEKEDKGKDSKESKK
T1 sequence (Q14524 whole entry): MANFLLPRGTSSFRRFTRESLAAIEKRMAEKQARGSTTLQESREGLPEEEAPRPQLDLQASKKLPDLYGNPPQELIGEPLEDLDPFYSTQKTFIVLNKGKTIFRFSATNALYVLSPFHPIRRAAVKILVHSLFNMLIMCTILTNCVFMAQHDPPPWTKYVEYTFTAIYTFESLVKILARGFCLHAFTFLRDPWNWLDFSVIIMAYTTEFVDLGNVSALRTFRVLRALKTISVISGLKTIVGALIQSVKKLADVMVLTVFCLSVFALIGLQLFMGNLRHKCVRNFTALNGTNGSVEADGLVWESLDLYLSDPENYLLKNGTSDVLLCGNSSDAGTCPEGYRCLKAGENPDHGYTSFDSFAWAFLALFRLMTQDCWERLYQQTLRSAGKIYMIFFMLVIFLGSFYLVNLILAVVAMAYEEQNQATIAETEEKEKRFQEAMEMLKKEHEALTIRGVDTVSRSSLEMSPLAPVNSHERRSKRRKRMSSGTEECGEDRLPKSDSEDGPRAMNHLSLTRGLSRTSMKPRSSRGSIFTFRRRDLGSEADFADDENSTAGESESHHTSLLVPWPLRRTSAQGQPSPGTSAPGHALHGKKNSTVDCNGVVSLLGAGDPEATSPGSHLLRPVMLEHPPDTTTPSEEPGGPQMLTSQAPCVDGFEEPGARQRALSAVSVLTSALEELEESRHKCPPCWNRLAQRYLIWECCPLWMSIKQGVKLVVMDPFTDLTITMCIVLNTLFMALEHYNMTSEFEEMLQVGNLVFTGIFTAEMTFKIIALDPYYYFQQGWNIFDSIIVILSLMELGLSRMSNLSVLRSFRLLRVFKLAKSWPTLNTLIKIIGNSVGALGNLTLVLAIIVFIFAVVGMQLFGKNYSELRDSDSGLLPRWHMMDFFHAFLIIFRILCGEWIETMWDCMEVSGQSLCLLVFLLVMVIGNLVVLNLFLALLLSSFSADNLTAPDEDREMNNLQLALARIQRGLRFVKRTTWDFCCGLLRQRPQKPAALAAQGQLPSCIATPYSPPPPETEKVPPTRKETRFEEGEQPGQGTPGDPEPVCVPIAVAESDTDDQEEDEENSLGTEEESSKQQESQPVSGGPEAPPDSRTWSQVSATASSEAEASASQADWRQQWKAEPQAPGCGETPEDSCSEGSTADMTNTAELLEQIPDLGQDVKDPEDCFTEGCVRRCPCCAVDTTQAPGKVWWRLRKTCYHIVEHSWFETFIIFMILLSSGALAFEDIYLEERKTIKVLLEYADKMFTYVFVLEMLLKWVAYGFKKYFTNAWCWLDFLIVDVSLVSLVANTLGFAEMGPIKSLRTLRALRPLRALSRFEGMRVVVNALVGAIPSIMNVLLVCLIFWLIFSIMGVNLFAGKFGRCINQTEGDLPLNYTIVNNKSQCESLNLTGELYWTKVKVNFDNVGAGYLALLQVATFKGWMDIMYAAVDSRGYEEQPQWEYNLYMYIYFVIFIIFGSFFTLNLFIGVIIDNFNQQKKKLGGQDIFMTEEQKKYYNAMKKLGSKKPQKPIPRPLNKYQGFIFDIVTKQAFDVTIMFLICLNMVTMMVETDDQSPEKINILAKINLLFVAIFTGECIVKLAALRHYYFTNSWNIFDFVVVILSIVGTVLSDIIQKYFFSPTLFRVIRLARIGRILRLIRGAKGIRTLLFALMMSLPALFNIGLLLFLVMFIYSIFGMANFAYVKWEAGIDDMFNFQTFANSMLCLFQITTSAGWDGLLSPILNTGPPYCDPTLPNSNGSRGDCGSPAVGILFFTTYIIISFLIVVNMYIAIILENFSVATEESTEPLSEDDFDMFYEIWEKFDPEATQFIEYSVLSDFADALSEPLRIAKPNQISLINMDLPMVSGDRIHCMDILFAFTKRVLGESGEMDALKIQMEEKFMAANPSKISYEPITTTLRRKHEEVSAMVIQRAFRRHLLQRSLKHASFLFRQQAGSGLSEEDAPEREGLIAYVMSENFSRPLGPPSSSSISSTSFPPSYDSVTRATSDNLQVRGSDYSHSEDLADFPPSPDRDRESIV

Compound: C[C@H](c1ccccc1C1(O)CNC1)n1c(=O)oc2cc(S(=O)(=O)Nc3ncns3)c(F)cc21 [Compound 32-4, (R)-5-fluoro-3-(1-(2-(3-hydroxyazetidin-3-yl)phenyl)ethyl)-2-oxo-N-(1,2,4-thiadiazol-5-yl)-2,3-dihydrobenzo[d]oxazole-6-sulfonamide]
- ratio of Nav 1.5:Nav 1.7 potency, determined by PatchXpress measurement [1]: 110
- IC50 [2, 3]: 34 nM

Compound: O=c1oc2cc(S(=O)(=O)Nc3ncns3)c(F)cc2n1Cc1cccc2c1CC(N1CCCC1)CC2 (racemic) [Compound 23-20, (+/−)-5-fluoro-2-oxo-3-[(7-pyrrolidin-1-yl-5,6,7,8-tetrahydronaphthalen-1-yl)methyl]-N-1,2,4-thiadiazol-5-yl-2,3-dihydro-1,3-benzoxazole-6-sulfonamide]
- ratio of Nav 1.5:Nav 1.7 potency, determined by PatchXpress measurement [1]: 802
- IC50 [2, 3]: 30 nM

Compound: CCc1cc2c(cc1S(=O)(=O)Nc1ncns1)oc(=O)n2[C@H](C)c1ccccc1 [Compound 38-2, 5-ethyl-2-oxo-3-[(1R)-1-phenylethyl]-N-1,2,4-thiadiazol-5-yl-2,3-dihydro-1,3-benzoxazole-6-sulfonamide]
- ratio of Nav 1.5:Nav 1.7 potency, determined by PatchXpress measurement [1]: 17
- IC50 [2, 3]: 94 nM

Compound: C[C@H](c1ccccc1C#CCC(C)(C)N)n1c(=O)oc2cc(S(=O)(=O)Nc3ncns3)c(F)cc21 [Compound 17-15, 3-{(1R)-1-[2-(4-amino-4-methylpent-1-yn-1-yl)phenyl]ethyl}-5-fluoro-2-oxo-N-1,2,4-thiadiazol-5-yl-2,3-dihydro-1,3-benzoxazole-6-sulfonamide]
- ratio of Nav 1.5:Nav 1.7 potency, determined by PatchXpress measurement [1]: 1566
- IC50 [2, 3]: 32 nM

Compound: C[C@H](c1ccccc1C1=CCNCC1)n1c(=O)oc2cc(S(=O)(=O)Nc3ncns3)c(Cl)cc21.Cl [Compound 34-6, (R)-5-chloro-2-oxo-3-(1-(2-(1,2,3,6-tetrahydropyridin-4-yl)phenyl)ethyl)-N-(1,2,4-thiadiazol-5-yl)-2,3-dihydrobenzo[d]oxazole-6-sulfonamide hydrochloride]
- ratio of Nav 1.5:Nav 1.7 potency, determined by PatchXpress measurement [1]: 1200
- IC50 ([2]; potency for the Nav 1.7 sodium ion channel (as measured by PatchXpress)): 25 nM

Compound: O=c1oc2cc(S(=O)(=O)Nc3ncns3)c(F)cc2n1[C@@H]1CC2(CCC2)Oc2ccccc21 [Compound 39-14, 3-[(4R)-3,4-dihydrospiro[chromene-2,1′-cyclobutan]-4-yl]-5-fluoro-2-oxo-N-1,2,4-thiadiazol-5-yl-2,3-dihydro-1,3-benzoxazole-6-sulfonamide]
- ratio of Nav 1.5:Nav 1.7 potency, determined by PatchXpress measurement [1]: 99
- IC50 [2, 3]: 60 nM

Compound: C[C@H](c1ccccc1C1=CCCNC1)n1c(=O)oc2cc(S(=O)(=O)Nc3ncns3)c(F)cc21 [Compound 16-5, 5-fluoro-2-oxo-3-{(1R)-1-[2-(1,2,5,6-tetrahydropyridin-3-yl)phenyl]ethyl}-N-1,2,4-thiadiazol-5-yl-2,3-dihydro-1,3-benzoxazole-6-sulfonamide]
- ratio of Nav 1.5:Nav 1.7 potency, determined by PatchXpress measurement [1]: 646
- IC50 [2, 3]: 46 nM

Compound: C[C@H](c1ccccc1C#CC1CNC1)n1c(=O)oc2cc(S(=O)(=O)Nc3ncns3)c(F)cc21 [Compound 17-16, 3-{(1R)-1-[2-(azetidin-3-ylethynyl)phenyl]ethyl}-5-fluoro-2-oxo-N-1,2,4-thiadiazol-5-yl-2,3-dihydro-1,3-benzoxazole-6-sulfonamide]
- ratio of Nav 1.5:Nav 1.7 potency, determined by PatchXpress measurement [1]: 973
- IC50 [2, 3]: 31 nM

Compound: C[C@H](c1cccc(-c2ccn(C)n2)c1)n1c(=O)oc2cc(S(=O)(=O)Nc3nccs3)c(F)cc21 [Compound 43-25, 5-fluoro-3-{(1R)-1-[3-(1-methyl-1H-pyrazol-3-yl)phenyl]ethyl}-2-oxo-N-1,3-thiazol-2-yl-2,3-dihydro-1,3-benzoxazole-6-sulfonamide]
- ratio of Nav 1.5:Nav 1.7 potency, determined by PatchXpress measurement [1]: 86
- IC50 [2, 3]: 306 nM

Compound: C[C@H](c1ccccc1C#CCNS(C)(=O)=O)n1c(=O)oc2cc(S(=O)(=O)Nc3ncns3)c(Cl)cc21 [Compound 36-6, 5-chloro-3-[(1R)-1-(2-{3-[(methylsulfonyl)amino]prop-1-yn-1-yl}phenyl)ethyl]-2-oxo-N-1,2,4-thiadiazol-5-yl-2,3-dihydro-1,3-benzoxazole-6-sulfonamide]
- ratio of Nav 1.5:Nav 1.7 potency, determined by PatchXpress measurement [1]: 175
- IC50 [2, 3]: 121 nM

Compound: C[C@H](c1cccc(-c2ccn(C)n2)c1)n1c(=O)oc2cc(S(=O)(=O)Nc3ncns3)c(F)cc21 [Compound 28-3, (R)-5-Fluoro-3-(1-(3-(1-methyl-1H-pyrazol-3-yl)phenyl)ethyl)-2-oxo-N-(1,2,4-thiadiazol-5-yl)-2,3-dihydrobenzo[d]oxazole-6-sulfonamide]
- ratio of Nav 1.5:Nav 1.7 potency, determined by PatchXpress measurement [1]: 86
- IC50 [2, 3]: 306 nM

Compound: Nc1ccc2c(c1)C(n1c(=O)oc3cc(S(=O)(=O)Nc4ncns4)c(F)cc31)CCC2 (centres unmarked) [Compound 39-3]
- ratio of Nav 1.5:Nav 1.7 potency, determined by PatchXpress measurement [1]: 1196
- IC50 [2, 3]: 41 nM

Compound: C[C@H](c1ccccc1C#C[C@@H](C)O)n1c(=O)oc2cc(S(=O)(=O)Nc3ncns3)c(F)cc21 [Compound 17-7, 5-fluoro-3-[(1R)-1-{2-[(3R)-3-hydroxybut-1-yn-1-yl]phenyl}ethyl]-2-oxo-N-1,2,4-thiadiazol-5-yl-2,3-dihydro-1,3-benzoxazole-6-sulfonamide]
- ratio of Nav 1.5:Nav 1.7 potency, determined by PatchXpress measurement [1]: 1257
- IC50 [2, 3]: 78 nM

Compound: O=c1oc2cc(S(=O)(=O)Nc3nccs3)c(F)cc2n1Cc1cccc2c1CNCC2F (racemic) [Compound 43-26, (+/-)-5-fluoro-3-[(4-fluoro-1,2,3,4-tetrahydroisoquinolin-8-yl)methyl]-2-oxo-N-1,3-thiazol-2-yl-2,3-dihydro-1,3-benzoxazole-6-sulfonamide]
- ratio of Nav 1.5:Nav 1.7 potency, determined by PatchXpress measurement [1]: 150
- IC50 [2, 3]: 141 nM

Compound: Cl.O=c1oc2cc(S(=O)(=O)Nc3nccs3)c(F)cc2n1Cc1cccc2c1CNCC2(F)F [Compound 44-5, 3-((4,4-Difluoro-1,2,3,4-tetrahydroisoquinolin-8-yl)methyl)-5-fluoro-2-oxo-N-(thiazol-2-yl)-2,3-dihydrobenzo[d]oxazole-6-sulfonamide hydrochloride]
- ratio of Nav 1.5:Nav 1.7 potency, determined by PatchXpress measurement [1]: 151
- IC50 [2, 3]: 181 nM

Compound: O=c1oc2cc(S(=O)(=O)Nc3ncns3)c(F)cc2n1[C@H](CCF)c1ccccc1 [Compound 37-3]
- ratio of Nav 1.5:Nav 1.7 potency, determined by PatchXpress measurement [1]: 39
- IC50 [2, 3]: 132 nM

Compound: Nc1ccc2c(c1)C(n1c(=O)oc3cc(S(=O)(=O)Nc4nccs4)c(F)cc31)CCC2 (centres unmarked) [Compound 43-14, 3-(7-amino-1,2,3,4-tetrahydronaphthalen-1-yl)-5-fluoro-2-oxo-N-1,3-thiazol-2-yl-2,3-dihydro-1,3-benzoxazole-6-sulfonamide]
- ratio of Nav 1.5:Nav 1.7 potency, determined by PatchXpress measurement [1]: 724
- IC50 [2, 3]: 140 nM

Compound: O=c1oc2cc(S(=O)(=O)Nc3nccs3)c(F)cc2n1C1CCCc2c(F)cc(F)cc21 (centres unmarked) [Compound 43-9, 3-(5,7-difluoro-1,2,3,4-tetrahydronaphthalen-1-yl)-5-fluoro-2-oxo-N-1,3-thiazol-2-yl-2,3-dihydro-1,3-benzoxazole-6-sulfonamide]
- ratio of Nav 1.5:Nav 1.7 potency, determined by PatchXpress measurement [1]: 95
- IC50 [2, 3]: 67 nM

Compound: CC(c1cccc(-c2ccnc(CO)c2)c1)n1c(=O)oc2cc(S(=O)(=O)Nc3ncns3)c(F)cc21 (centres unmarked) [Compound 29-3, 5-fluoro-3-(1-{3-[2-(hydroxymethyl)pyridin-4-yl]phenyl}ethyl)-2-oxo-N-1,2,4-thiadiazol-5-yl-2,3-dihydro-1,3-benzoxazole-6-sulfonamide]
- ratio of Nav 1.5:Nav 1.7 potency, determined by PatchXpress measurement [1]: 61
- IC50 [2, 3]: 216 nM
